# Tests used:
# [1] = molecular target: T1, wild-type (wt) human (h) P2X4 receptor (Homo sapiens, UniProt Q99571); experiment: Two-electrode voltage clamp (TEVC), wt hP2X4 in Xenopus laevis oocytes; type: cell-based; conditions: TEVC at -60 mV
# T1 construct: host or cells: Xenopus laevis oocytes injected with cRNA (pNKS2 vector)
# Protocol: Xenopus laevis frogs were from Nasco International (Fort Atkinson, WI, USA) and kept at the Core Facility Animal Models (CAM) of the BMC of LMU Munich, Germany (Az: 4.3.2–5682/LMU/BMC/CAM) in accordance with the EU Animal Welfare Act. […] Fifty nanoliters of cRNA (0.5 µg/µL) were injected using a Nanoject II injector (Science Products, Drummond, USA) and oocytes were kept in ND96 (96 mM NaCl, 2 mM KCl, 1 mM MgCl2, 1 mM CaCl2, 5 mM HEPES, pH 7.4–7.5) supplemented with 5 μg/mL gentamicin at 16 °C.
# cDNA encoding human P2X4 receptor (NM_002560.3) was obtained from BioCat GmbH (Heidelberg, Germany) and cloned into the pNKS2 vector[87] using Gibson Assembly (E2621L, New England Biolabs, USA) according to the manufacturer’s instructions. Point mutations were introduced by site-directed mutagenesis using KLD Enzyme Mix (M0554S, New England Biolabs, USA). All constructs were verified by full-length cDNA sequencing (Eurofins Genomics, Germany). Plasmids were linearized with NotI-HF (R3189S, New England Biolabs, USA) and purified using the MinElute Reaction Cleanup Kit (Qiagen, Hilden, Germany). […]
# Statistical analysis was performed with GraphPad Prism version 10 software, and data are presented as means ± SEM. Data were assessed for normality using the Shapiro–Wilk test and for homogeneity of variances using Levene’s test. […]
# human wt P2X2 receptor = molecular target: T2, human wt P2X2 receptor (Homo sapiens, UniProt Q9UBL9); experiment: ATP-induced calcium influx assay, human wt P2X2 receptor in 1321N1 astrocytoma cells; type: cell-based
# T2 construct: expressed in transfected cells
# T2 sequence (Q9UBL9 1-471): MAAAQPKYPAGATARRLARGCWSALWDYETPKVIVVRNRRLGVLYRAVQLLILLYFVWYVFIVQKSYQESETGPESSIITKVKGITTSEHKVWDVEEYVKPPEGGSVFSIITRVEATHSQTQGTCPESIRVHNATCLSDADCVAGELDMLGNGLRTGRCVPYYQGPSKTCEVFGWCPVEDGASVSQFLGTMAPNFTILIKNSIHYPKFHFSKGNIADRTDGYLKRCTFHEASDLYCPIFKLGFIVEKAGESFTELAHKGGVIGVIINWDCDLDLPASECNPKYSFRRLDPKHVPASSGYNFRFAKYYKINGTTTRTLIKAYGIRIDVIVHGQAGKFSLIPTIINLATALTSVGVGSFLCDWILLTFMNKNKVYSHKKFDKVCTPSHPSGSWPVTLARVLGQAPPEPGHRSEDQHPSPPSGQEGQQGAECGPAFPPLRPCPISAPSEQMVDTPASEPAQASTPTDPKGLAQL
# [2] = molecular target: T3, P2X4-Q308T receptor mutant (Homo sapiens, UniProt Q99571, Q308T); experiment: cell-based
# T3 sequence (Q99571 1-388 Q308T): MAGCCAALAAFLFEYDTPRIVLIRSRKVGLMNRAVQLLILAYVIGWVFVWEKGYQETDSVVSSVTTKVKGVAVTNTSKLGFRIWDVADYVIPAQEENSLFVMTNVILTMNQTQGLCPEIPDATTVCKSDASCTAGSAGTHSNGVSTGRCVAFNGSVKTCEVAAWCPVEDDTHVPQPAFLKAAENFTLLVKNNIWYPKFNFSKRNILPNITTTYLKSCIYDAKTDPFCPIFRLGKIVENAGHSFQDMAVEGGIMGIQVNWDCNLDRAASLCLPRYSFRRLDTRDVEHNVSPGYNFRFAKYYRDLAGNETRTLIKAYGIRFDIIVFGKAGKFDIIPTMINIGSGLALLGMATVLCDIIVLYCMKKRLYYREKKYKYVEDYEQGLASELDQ
# [3] = molecular target: T4, chimeric P2X4(P2X2) receptor c10^R301-Q308 (Homo sapiens, UniProt Q99571, A304N/D302K/DEL301-301/E307T/L303I/N306T/Q308T); experiment: ATP-induced calcium influx assay, chimeric receptor c10 in 1321N1 astrocytoma cells; type: cell-based
# T4 construct: expressed in transfected cells; gene synthesis (Geneart), pLVX-IRES-mCherry (bicistronic, mCherry not fused)
# T4 sequence (Q99571 with tags, fused parts or gaps DEL301-301/D302K/L303I/A304N/N306T/E307T/Q308T): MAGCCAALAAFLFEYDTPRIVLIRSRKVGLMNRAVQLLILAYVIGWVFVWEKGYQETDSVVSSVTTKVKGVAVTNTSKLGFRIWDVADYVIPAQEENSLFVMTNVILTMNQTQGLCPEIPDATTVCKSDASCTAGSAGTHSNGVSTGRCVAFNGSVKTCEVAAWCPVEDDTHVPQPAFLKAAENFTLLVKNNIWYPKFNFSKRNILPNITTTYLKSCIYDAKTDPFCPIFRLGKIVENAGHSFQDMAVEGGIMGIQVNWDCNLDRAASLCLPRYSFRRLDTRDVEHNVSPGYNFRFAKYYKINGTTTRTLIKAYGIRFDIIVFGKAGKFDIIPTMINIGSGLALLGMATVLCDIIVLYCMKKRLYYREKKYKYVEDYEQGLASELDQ
# T1 sequence (Q99571 whole entry): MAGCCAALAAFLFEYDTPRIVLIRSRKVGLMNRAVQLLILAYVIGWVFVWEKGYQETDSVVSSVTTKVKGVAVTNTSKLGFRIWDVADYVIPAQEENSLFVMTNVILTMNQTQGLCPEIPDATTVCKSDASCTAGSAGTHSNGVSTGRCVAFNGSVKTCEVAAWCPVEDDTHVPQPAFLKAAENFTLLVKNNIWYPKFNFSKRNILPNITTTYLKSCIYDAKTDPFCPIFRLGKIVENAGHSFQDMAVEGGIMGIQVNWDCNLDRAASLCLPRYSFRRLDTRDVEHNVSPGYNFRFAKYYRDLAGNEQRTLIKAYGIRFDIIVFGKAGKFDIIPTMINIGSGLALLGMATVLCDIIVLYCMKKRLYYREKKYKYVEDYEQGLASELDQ
smiles,measurement,setting,value
"Nc1ncnc2c1ncn2[C@@H]1O[C@H](COP(=O)(O)OP(=O)(O)OP(=O)(O)O)[C@@H](O)[C@H]1O [ATP, Adenosine 5′-triphosphate]",EC50,[1],~10 µM
same,EC50,"human wt P2X2 receptor; ATP EC50, wt hP2X2, calcium influx",0.637 µM
same,EC50,"human wt P2X2 receptor; ATP pEC50 ± SEM, wt hP2X2",0.759 µM
same,EC50,"[2]; ATP EC50, P2X4-Q308T",0.295 µM
same,EC50,"[2]; ATP pEC50 ± SEM, P2X4-Q308T",0.275 µM
same,EC50,[3],0.912 µM
same,EC50 of ATP at c10 higher than at wt P2X4,[3]; calcium influx,2.4 fold

# Reference: paper PMC12678798, “Discovery of an allosteric binding site for anthraquinones at the human P2X4 receptor” (Nature Communications, 2025)
